In ChEMBL document CHEMBL5223142, “Identification of potent and selective inhibitors of PKR via virtual screening and traditional design” (Bioorg Med Chem Lett, 2023):

Key:
[1] = target: T1, Interferon-induced, double-stranded RNA-activated protein kinase (Homo sapiens, UniProt P19525); test: Inhibition of PKR (unknown origin)
[2] = target: T1, Interferon-induced, double-stranded RNA-activated protein kinase; test: Inhibition of GST tagged human PKR incubated for 10 mins in presence of ATP by Kinase Glo luminescence assay

T1 sequence (P19525 whole entry): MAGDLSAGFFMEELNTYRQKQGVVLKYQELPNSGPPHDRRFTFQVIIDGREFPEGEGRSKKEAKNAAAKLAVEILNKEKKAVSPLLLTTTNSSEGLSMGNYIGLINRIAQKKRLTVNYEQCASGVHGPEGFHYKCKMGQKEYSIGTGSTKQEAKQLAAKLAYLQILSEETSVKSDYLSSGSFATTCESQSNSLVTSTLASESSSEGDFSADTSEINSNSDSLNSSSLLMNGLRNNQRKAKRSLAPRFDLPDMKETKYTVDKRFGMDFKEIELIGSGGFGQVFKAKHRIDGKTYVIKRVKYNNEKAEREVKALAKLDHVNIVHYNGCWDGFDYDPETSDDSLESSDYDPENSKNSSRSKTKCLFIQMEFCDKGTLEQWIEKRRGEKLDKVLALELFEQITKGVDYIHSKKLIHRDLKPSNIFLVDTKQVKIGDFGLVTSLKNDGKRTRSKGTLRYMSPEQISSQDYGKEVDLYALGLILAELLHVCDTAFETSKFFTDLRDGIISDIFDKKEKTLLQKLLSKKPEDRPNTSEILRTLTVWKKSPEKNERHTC

| IC50 [1] | SMILES | also measured |
| --- | --- | --- |
| 364 nM | COCCO[C@H]1CC[C@H](n2nc(-c3ccc(Nc4nc5cc(Cl)cc(F)c5o4)cc3)c3c(N)ncnc32)CC1 | – |
| 116 nM | CCn1cc(-c2ccc3c(c2)CCN3C(=O)Cc2cccc(OC(F)(F)F)c2)c2c(N)ncnc21 | – |

The next lines start with the molecule.

| SMILES | IC50 [1] | also measured |
| --- | --- | --- |
| CCc1ccc(OC(F)(F)F)cc1CC(=O)N1CCc2cc(-c3nn(CC)c4ncnc(N)c34)ccc21 | – | EC50 [1]: 95 nM |
| O=C(Nc1cc(-c2ccccc2)[nH]n1)c1ccc(N2CCNC2=O)cc1 | 3880 nM | – |
| Nc1ncc(-c2nnn(CCCO)n2)cc1-c1cc2cc(NC(=O)Nc3ccc(Cl)c(C(F)(F)F)c3)ccc2o1 | – | IC50 [2]: 475 nM |
| CC(=O)Cn1cc(-c2cnc(N)c3c(-c4ccc(NC(=O)Nc5cccc(C)c5)cc4)csc23)cn1 | 306 nM | – |
| CCc1ccc(OC(F)(F)F)cc1CC(=O)N1CCc2cc(-c3cn(CC)c4ncnc(N)c34)ccc21 | – | EC50 [1]: 37 nM |
